Results on 1 substance are retold here after patent US20090156648A1, “Preparations containing pyridoxine and alpha-hydroxyisocaproic acid (HICA)” (IOVATE T. & P. INC., priority 2007, published 2009).

This data set is described as follows: hygroscopicity and storage stability of the salt as described. The class given is physicochemical. The conditions noted are these: crystalline powder.

With pyridoxine α-hydroxyisocaproate, the hygroscopic nature result is “non-hygroscopic” and the stability in storage entry is “stable in storage”.
